Assay results as given in BindingDB's records for doi:10.1016/0960-894X(95)00040-Z (1995).

Assay: Compound was tested for inhibitory activity against prostaglandin synthetase in mouse brain microsomes

C1=C(CCN2CCOCC2)c2ccccc2/C1=C/c1ccccc1 [4-(2-{3-[1-Phenyl-meth-(E)-ylidene]-3H-inden-1-yl}-ethyl)-morpholine]
IC50: 20 µM
